Assay results published in patent US7326721B2 (Hypnion, Inc., priority 2003, dated 2008).
Like-named read-outs stand apart in the source and are kept apart here.

Key:
adult male Wistar rats = experiment: SCORE-2000 sleep-wakefulness, locomotor activity and body temperature monitoring; type: in vivo, rat
H1 histamine receptor = target: T1, H1 histamine receptor (Bos taurus, UniProt P30546); experiment: Histamine H1 competitive binding assay ([3H]pyrilamine); design: species or system bovine; details: read-out: Ki H1
T1 construct: the receptors were obtained from bovine cerebellar membrane tissue; from tissue; host or cells: bovine cerebellar membranes

hERG = hERG (Homo sapiens, UniProt Q12809)
M1 muscarinic receptor = target: T2, M1 muscarinic receptor (Homo sapiens, UniProt P11229); experiment: Muscarinic M1 binding assay ([3H]-scopolamine, N-methyl chloride); design: purchased PerkinElmer, Inc., Wellesley, Mass; host or cells: CHO cells; details: read-out: Ki M1
T2 sequence (P11229 1-460): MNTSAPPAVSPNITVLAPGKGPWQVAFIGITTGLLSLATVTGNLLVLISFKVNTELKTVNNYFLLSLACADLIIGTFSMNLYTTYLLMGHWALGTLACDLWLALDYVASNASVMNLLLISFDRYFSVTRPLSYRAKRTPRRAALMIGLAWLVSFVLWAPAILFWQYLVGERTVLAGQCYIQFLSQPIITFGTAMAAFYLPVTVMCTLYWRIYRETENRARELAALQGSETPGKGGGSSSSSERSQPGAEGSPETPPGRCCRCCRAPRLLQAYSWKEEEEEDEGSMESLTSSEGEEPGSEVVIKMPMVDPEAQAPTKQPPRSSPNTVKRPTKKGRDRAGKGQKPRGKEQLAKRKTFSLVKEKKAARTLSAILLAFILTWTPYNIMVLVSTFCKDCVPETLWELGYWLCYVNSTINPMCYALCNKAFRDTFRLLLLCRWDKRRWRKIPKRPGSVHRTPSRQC

M2 muscarinic receptor = target: T3, M2 muscarinic receptor (Homo sapiens, UniProt P08172); experiment: Muscarinic M2 binding assay; design: purchased PerkinElmer, Inc., Wellesley, Mass; host or cells: CHO cells; details: for Ki: read-out: Ki M2
T3 sequence (P08172 1-466): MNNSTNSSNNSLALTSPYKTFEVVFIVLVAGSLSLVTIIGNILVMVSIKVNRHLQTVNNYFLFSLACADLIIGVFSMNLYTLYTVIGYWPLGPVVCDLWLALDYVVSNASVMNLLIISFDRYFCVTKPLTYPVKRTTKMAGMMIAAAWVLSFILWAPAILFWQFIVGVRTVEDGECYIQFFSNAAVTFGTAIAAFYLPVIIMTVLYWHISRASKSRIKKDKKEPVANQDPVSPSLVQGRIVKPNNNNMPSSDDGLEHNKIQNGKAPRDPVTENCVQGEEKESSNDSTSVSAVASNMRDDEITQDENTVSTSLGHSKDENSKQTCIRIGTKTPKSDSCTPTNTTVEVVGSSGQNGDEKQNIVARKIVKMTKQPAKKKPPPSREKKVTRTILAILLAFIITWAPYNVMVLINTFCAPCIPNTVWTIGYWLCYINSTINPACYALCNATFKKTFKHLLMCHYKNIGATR

M3 muscarinic receptor = M3 muscarinic receptor (Homo sapiens, UniProt P20309); experiment: Muscarinic M3 binding assay; design: purchased PerkinElmer, Inc., Wellesley, Mass; host or cells: CHO cells; details: read-out: Ki M3
Chain of M3 muscarinic receptor (P20309 whole entry): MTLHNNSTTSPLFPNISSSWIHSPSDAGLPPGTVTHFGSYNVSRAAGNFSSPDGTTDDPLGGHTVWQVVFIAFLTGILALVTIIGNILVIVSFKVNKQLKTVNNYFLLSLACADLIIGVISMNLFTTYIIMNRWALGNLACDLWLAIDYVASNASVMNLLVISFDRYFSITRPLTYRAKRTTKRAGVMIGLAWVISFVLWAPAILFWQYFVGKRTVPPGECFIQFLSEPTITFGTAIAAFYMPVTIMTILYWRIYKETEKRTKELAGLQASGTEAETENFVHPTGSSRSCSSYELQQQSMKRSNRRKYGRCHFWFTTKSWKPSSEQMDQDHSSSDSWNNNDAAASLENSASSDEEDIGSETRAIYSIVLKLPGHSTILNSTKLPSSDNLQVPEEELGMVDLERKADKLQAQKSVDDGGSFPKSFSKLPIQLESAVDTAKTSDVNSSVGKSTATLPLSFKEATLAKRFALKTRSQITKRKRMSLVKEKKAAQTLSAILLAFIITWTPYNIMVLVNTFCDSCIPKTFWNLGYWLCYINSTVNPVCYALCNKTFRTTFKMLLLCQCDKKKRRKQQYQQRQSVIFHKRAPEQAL

Chain of hERG (Q12809 whole entry): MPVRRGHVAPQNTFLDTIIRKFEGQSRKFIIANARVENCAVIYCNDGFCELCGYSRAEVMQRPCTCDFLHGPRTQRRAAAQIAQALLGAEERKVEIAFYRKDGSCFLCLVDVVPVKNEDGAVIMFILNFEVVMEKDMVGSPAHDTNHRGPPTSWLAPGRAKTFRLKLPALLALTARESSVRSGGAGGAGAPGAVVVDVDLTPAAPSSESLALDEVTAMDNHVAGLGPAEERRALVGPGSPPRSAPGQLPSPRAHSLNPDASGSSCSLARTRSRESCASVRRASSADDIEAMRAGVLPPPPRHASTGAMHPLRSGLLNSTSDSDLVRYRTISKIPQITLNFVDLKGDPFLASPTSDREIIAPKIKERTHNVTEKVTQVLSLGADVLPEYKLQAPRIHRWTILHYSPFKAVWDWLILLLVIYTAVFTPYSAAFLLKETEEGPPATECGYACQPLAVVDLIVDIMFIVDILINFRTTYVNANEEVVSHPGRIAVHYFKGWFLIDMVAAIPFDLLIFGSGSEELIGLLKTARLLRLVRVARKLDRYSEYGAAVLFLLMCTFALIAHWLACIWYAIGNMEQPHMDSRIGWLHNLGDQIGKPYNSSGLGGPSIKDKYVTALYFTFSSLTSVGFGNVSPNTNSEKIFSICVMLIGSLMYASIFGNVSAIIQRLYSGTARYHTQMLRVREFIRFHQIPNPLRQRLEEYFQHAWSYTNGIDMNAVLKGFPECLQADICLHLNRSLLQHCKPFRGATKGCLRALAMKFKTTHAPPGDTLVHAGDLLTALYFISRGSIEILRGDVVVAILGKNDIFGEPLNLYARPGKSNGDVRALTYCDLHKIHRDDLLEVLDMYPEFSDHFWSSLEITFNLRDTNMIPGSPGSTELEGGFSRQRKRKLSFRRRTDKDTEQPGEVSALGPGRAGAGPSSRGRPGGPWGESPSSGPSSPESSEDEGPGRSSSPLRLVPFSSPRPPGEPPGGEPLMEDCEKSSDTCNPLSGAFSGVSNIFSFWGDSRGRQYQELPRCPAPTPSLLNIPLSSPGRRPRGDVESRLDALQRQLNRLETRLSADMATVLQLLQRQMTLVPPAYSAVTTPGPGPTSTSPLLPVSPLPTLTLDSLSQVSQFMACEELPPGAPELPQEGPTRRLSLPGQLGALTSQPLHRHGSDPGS
T1 sequence (P30546 whole entry): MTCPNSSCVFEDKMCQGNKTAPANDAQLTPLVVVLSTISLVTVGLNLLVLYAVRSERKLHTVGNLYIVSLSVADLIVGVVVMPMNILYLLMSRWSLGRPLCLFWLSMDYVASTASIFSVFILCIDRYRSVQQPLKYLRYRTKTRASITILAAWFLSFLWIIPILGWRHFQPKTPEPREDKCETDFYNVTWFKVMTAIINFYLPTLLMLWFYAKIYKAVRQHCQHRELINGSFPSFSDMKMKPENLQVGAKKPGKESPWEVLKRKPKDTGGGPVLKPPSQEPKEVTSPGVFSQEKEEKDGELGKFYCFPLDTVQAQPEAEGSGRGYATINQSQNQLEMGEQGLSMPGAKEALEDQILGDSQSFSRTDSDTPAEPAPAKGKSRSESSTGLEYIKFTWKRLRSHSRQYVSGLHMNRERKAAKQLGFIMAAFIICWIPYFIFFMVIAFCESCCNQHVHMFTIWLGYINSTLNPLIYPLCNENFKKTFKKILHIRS

Row | Structure (SMILES) | LUSB (adult male Wistar rats; dose 3 mg/kg oral at CT-18) [min] | NREM (adult male Wistar rats; dose 3 mg/kg oral at CT-18) [min] | LUSB (adult male Wistar rats; dose 10 mg/kg oral at CT-18) [min] | NREM (adult male Wistar rats; dose 10 mg/kg oral at CT-18) [min] | LUSB (adult male Wistar rats; dose 30 mg/kg oral at CT-18) [min] | NREM (adult male Wistar rats; dose 30 mg/kg oral at CT-18) [min] | also measured
1 | CC(C)(CN1CCC(=C2c3ccc(F)cc3COc3ccc(F)cc32)CC1)C(=O)O [Compound 48a] | 11.2 | 50.8 | 10 | 58.6 | 4.4 | 39.4 | LUSB (adult male Wistar rats; dose 1 mg/kg oral at CT-18): 6.9 min; NREM (adult male Wistar rats; dose 1 mg/kg oral at CT-18): 36.7 min
2 | COc1ccc2c(c1)COc1ccccc1C2=C1CCN(CC2(C(=O)O)CC2)CC1 [Compound 50b] | 6.9 | 10.7 | 8.1 | 24.2 | 14.3 | 51.9 | Ki (H1 histamine receptor): 0.0698 µM; hERG at micromolar (% blocking of the hERG channel) (hERG; human, 10 µM, pH 7.4): 27.1% @ 10; Ki (M1 muscarinic receptor): > 10 µM; Ki (M2 muscarinic receptor): > 10 µM; Ki (M3 muscarinic receptor): > 10 µM
3 | COc1ccc2c(c1)C(=C1CCN(CC(C)(C)C(=O)O)CC1)c1ccc(F)cc1CO2 [Compound 46a] | 5 | 12.1 | 8.2 | 36 | – | – | Ki (H1 histamine receptor): 0.134 µM; Ki (M1 muscarinic receptor): > 10 µM; Ki (M2 muscarinic receptor): 2.45 µM; Ki (M3 muscarinic receptor): > 10 µM
4 | COc1ccc2c(c1)C(=C1CCN(CC3(C(=O)O)CC3)CC1)c1ccccc1CO2 [Compound 52b] | – | – | 2.9 | 7.5 | 7.1 | 26.8 | –
5 | CC(C)(CCN1CCC(=C2c3ccc(Cl)cc3COc3ccccc32)CC1)C(=O)O [Compound 68a] | 4.3 | 20.9 | 7.8 | 45.9 | 11.9 | 50.8 | hERG at micromolar (% blocking of the hERG channel) (hERG): 25.3% @ 10
6 | COc1ccc2c(c1)COc1ccccc1C2=C1CCN(CCC(C)(C)C(=O)O)CC1 [Compound 62a] | – | – | 7.4 | 23.2 | 9.1 | 25.2 | Ki (H1 histamine receptor): 0.128 µM; hERG at micromolar (% blocking of the hERG channel) (hERG; human, 10 µM, pH 7.4): 13.6% @ 10; Ki (M1 muscarinic receptor): > 10 µM; Ki (M2 muscarinic receptor): > 10 µM; Ki (M3 muscarinic receptor): > 10 µM
7 | O=C(O)C1(CCN2CCC(=C3c4ccccc4COc4ccc(O)cc43)CC2)CC1 [Compound 65b] | – | – | 3.9 | -5.7 | – | – | –
8 | Cc1ccc2c(c1)COc1ccccc1C2=C1CCN(CCC(C)(C)C(=O)O)CC1 [Compound 66a] | – | – | – | – | 8.8 | 27.8 | –
9 | CC(C)(CN1CCC(=C2c3ccc(C(F)(F)F)cc3COc3ccccc32)CC1)C(=O)O [Compound 54a] | – | – | – | – | 6.1 | 28.6 | –
10 | CC(C)(CN1CCC(=C2c3ccc(O)cc3COc3ccccc32)CC1)C(=O)O [Compound 56a] | – | – | – | – | 4.3 | 6.4 | –
11 | O=C(O)C1(CCN2CCC(=C3c4ccc(O)cc4COc4ccccc43)CC2)CC1 [Compound 63b] | – | – | 2.1 | -4.8 | – | – | –
12 | CCC(CC)(CN1CCC(=C2c3ccc(F)cc3COc3ccccc32)CC1)C(=O)O [Compound 49c] | – | – | – | – | – | – | Ki (H1 histamine receptor): 0.0299 µM; hERG at micromolar (% blocking of the hERG channel) (hERG; human, 10 µM, pH 7.4): 19.7% @ 10; Ki (M1 muscarinic receptor): > 10 µM; Ki (M2 muscarinic receptor): > 10 µM; Ki (M3 muscarinic receptor): > 10 µM
13 | CC(C)(CN1CCC(=C2c3ccccc3COc3ccc(O)cc32)CC1)C(=O)O [Compound 55a] | – | – | – | – | 2 | 12.8 | –
14 | CC(C)(CCN1CCC(=C2c3ccc(O)cc3COc3ccccc32)CC1)C(=O)O [Compound 63a] | – | – | – | – | 4.6 | 9.6 | –
15 | CC(C)(CN1CCC(=C2c3ccccc3COc3ccc(F)cc32)CC1)C(=O)O [Compound 53a] | 17.2 | 38.6 | 14.4 | 51.5 | 11.9 | 66.3 | LUSB (adult male Wistar rats; dose 1 mg/kg oral at CT-18): 5 min; NREM (adult male Wistar rats; dose 1 mg/kg oral at CT-18): 14.6 min
16 | O=C(O)C1(CN2CCC(=C3c4ccc(O)cc4COc4ccccc43)CC2)CC1 [Compound 56b] | – | – | – | – | -2.9 | -9.9 | –

Row | Structure (SMILES) | LUSB (adult male Wistar rats; dose 3 mg/kg oral at CT-18) [min] | NREM (adult male Wistar rats; dose 3 mg/kg oral at CT-18) [min] | LUSB (adult male Wistar rats; dose 10 mg/kg oral at CT-18) [min] | NREM (adult male Wistar rats; dose 10 mg/kg oral at CT-18) [min] | LUSB (adult male Wistar rats; dose 30 mg/kg oral at CT-18) [min] | NREM (adult male Wistar rats; dose 30 mg/kg oral at CT-18) [min] | also measured
17 | CC(C)(CN1CCC(=C2c3ccccc3COc3ccccc32)CC1)C(=O)O [Compound 69a] | 7.1 | 32.2 | 13.1 | 32.8 | 13.5 | 40 | hERG at micromolar (% blocking of the hERG channel) (hERG; human, 1 µM, pH 7.4): 6.1% @ 1
18 | CC(C)(CCN1CCC(=C2c3ccccc3COc3ccc(O)cc32)CC1)C(=O)O [Compound 65a] | – | – | 1.5 | 6.2 | – | – | –
19 | CC(C)(CN1CCC(=C2c3ccc(O)cc3COc3ccc(F)cc32)CC1)C(=O)O [Compound 60a] | – | – | 3.7 | -5.2 | – | – | –
20 | COc1ccc2c(c1)COc1ccccc1C2=C1CCN(CCC2(C(=O)O)CC2)CC1 [Compound 62b] | – | – | – | – | – | – | Ki (H1 histamine receptor): 0.0565 µM; Ki (M1 muscarinic receptor): > 10 µM; Ki (M2 muscarinic receptor): > 10 µM; Ki (M3 muscarinic receptor): > 10 µM
21 | COc1ccc2c(c1)C(=C1CCN(CCC(C)(C)C(=O)O)CC1)c1ccccc1CO2 [Compound 67a] | – | – | – | – | 6.5 | -11.5 | –
22 | COc1ccc2c(c1)COc1ccc(OC)cc1C2=C1CCN(CC(C)(C)C(=O)O)CC1 [Compound 10a] | 1.6 | -8.9 | 4 | 15.1 | 6.8 | 30.9 | LUSB (adult male Wistar rats; dose 1 mg/kg oral at CT-18): 3.1 min; NREM (adult male Wistar rats; dose 1 mg/kg oral at CT-18): -5 min
23 | CC(C)(CCN1CCC(=C2c3ccc(C(F)(F)F)cc3COc3ccccc32)CC1)C(=O)O [Compound 64a] | – | – | – | – | 12.3 | 33.5 | –
24 | COc1ccc2c(c1)C(=C1CCN(CCC3(C(=O)O)CC3)CC1)c1ccccc1CO2 [Compound 67b] | – | – | 4.6 | 12.6 | 10 | 21.1 | Ki (H1 histamine receptor): 0.0625 µM; Ki (M1 muscarinic receptor): > 10 µM; Ki (M2 muscarinic receptor): > 10 µM; Ki (M3 muscarinic receptor): > 10 µM
25 | Cc1ccc2c(c1)COc1ccccc1C2=C1CCN(CC(C)(C)C(=O)O)CC1 [Compound 57a] | – | – | – | – | -5.3 | -11 | –
26 | O=C(O)C1(CN2CCC(=C3c4ccccc4COc4ccc(O)cc43)CC2)CC1 [Compound 55b] | – | – | 2.5 | 7.7 | – | – | –
27 | CC(C)(CCCN1CCC(=C2c3ccccc3COc3ccccc32)CC1)C(=O)O [Compound 71a] | – | – | – | – | 3.6 | 8.1 | –
28 | C[N+]1(C)C2CC(OC(=O)C(CO)c3ccccc3)CC1C1OC12.[Br-] (single isomer, unassigned; (-)) [(−)-scopolamine, MeBr, (−)-scopolamine, methyl-, bromide, reference compound] | – | – | – | – | – | – | Slope (M2 muscarinic receptor; M2 binding curve (Table 17)): −0.89
29 | CC(C)(CN1CCC(=C2c3ccc(F)cc3COc3ccc(O)cc32)CC1)C(=O)O [Compound 58a] | 5.3 | 9.1 | 7.6 | -12.5 | – | – | –
30 | COc1ccc2c(c1)C(=C1CCN(CC(C)(C)C(=O)O)CC1)c1ccccc1CO2 [Compound 52a] | 8.2 | 13.6 | 5.7 | 26.8 | 10.1 | 37.2 | –
31 | O=C(O)CCN1CCC(=C2c3ccccc3COc3ccccc32)CC1 [Compound 69e] | 5.6 | 21.2 | 9.7 | 28.4 | – | – | LUSB (adult male Wistar rats; dose 20 mg/kg oral at CT-18): 12.3 min; NREM (adult male Wistar rats; dose 20 mg/kg oral at CT-18): 54.6 min; hERG at micromolar (% blocking of the hERG channel) (hERG): −1.4% @ 1
